{"source": "patent US9301987B2", "about": "“Anti-adipogenic compositions containing Piper betle and Dolichos biflorus” (LAILA NUTRACEUTICALS, priority 2007, dated 2016)", "key": {"[1]": {"tested_on": "diet induced obesity in rats", "test": "Protective effect against diet induced obesity in rats (treatment simultaneous with high fat diet)", "type": "in vivo, Sprague-Dawley rats", "settings": "7 mg/kg per day oral, 8 weeks, vs untreated control group", "protocol": "Selected healthy Sprague-Dawley rats were randomly assigned to control or various treatment groups (n=6). All the animals allocated for protective phase of the study were on dietary intervention by feeding high fat diet ad libitum and the animals allocated to treatment groups were simultaneously given oral administration of 250 mg/kg Piper betle hydroalcohol extract per day in 10 mL of 0.5% CMC, using gastric tube for the entire 8 week study duration. The test animals of the control group were simultaneously given 10 ml/kg 0.5% CMC. The animals of positive control group were given 7 mg/kg sibutramine in 10 mL of 0.5% CMC. Food and water consumptions were recorded daily, body weights were recorded weekly and fasting blood samples were collected before initiation, after 4th week and 8th week (termination) of the study. […] Upon administration of Piper betle alcohol extract for a period of 60 days, the level of triglyceride in the obese rats was reduced by 33%. The levels of serum cholesterol and LDL were reduced by 22% and 23% respectively, whereas the level of HDL was increased by 11%.\nSelected healthy Sprague-Dawley rats were randomly assigned to control or various treatment groups (n=6). […] Food and water consumption were recorded daily, body weights were recorded weekly and fasting blood samples were collected before initiation, after 4th week and 8th week (termination) of the study. […]"}, "diet induced obese rats": {"tested_on": "diet induced obese rats", "test": "Anti-obese activity in diet induced obese rats (treatment after 8 weeks high fat diet)", "type": "in vivo, Sprague-Dawley rats", "settings": "7 mg/kg per day oral, vs untreated control group", "protocol": "Selected healthy Sprague-Dawley rats were randomly assigned for control or various treatment groups (n=6). All the animals allocated for the study were made obese through dietary intervention by feeding high fat diet ad libitum for 8 weeks. After 8 weeks, the treatment group of animals was given oral administration of 250 mg/kg of Piper betle 60% methanol extract per day in 10 mL of 0.5% CMC, using gastric tube for 8 week study duration. The control group of animals was given 10 ml/kg of 0.5% CMC. The animals of positive control group were given 7 mg/kg sibutramine per day in 10 mL of 0.5% CMC. Food and water consumptions were recorded daily, body weights were recorded weekly and fasting blood samples were collected before initiation, after 4th week and 8th week (termination) of the study.\nSelected healthy Sprague-Dawley rats were randomly assigned to control or various treatment groups (n=6). All the animals allocated for the study were made obese through dietary intervention by feeding high fat diet ad libitum for 8 weeks. […] Food and water consumption were recorded daily, body weights were recorded weekly and fasting blood samples were collected before initiation, after 4th week and 8th week (termination) of the study."}}}
{"smiles": "CC(C)CC(N(C)C)C1(c2ccc(Cl)cc2)CCC1", "note": "(centres unmarked) [sibutramine]", "values": [{"measurement": "reduction (protection) in weight gain", "setting": "[1]", "result": 44.4, "unit": "%"}, {"measurement": "reduction in mean body weight gain", "setting": "diet induced obese rats", "result": "~87", "unit": "%"}]}
